Results published in patent US11661426B2, “Imidazole-containing inhibitors of ALK2 kinase” (BioCryst Pharmaceuticals, Inc., priority 2017, dated 2023).

Molecular target: ALK2 (Homo sapiens (Human), UniProt Q04771)
Experiment: ALK2 inhibition, LanthaScreen Eu Kinase Binding Assay (ThermoFisher Scientific / Life Technologies)
Settings: read-out: Measured Ki (IC50) Value for Compounds: IC50
Description: Biochemical assays to measure the inhibitory effects of the compounds were performed by ThermoFisher Scientific (Life Technologies). ALK2 inhibition was tested using LanthaScreen™ Eu Kinase Binding Assay screening protocol.

ALK2, sequence (Q04771 21-509): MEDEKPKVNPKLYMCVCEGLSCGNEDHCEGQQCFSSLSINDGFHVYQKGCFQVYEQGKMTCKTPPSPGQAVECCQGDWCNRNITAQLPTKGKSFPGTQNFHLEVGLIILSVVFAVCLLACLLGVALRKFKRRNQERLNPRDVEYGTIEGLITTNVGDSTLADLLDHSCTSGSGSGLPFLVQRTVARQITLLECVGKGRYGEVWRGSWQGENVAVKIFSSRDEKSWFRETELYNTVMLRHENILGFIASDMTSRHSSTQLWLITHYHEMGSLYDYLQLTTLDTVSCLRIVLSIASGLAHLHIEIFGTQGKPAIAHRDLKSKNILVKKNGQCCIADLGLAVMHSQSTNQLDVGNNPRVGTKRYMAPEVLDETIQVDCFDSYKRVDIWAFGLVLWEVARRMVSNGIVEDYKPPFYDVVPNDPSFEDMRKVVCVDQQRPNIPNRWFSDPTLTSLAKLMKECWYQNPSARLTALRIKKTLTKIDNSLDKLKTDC

SMILES	IC50 [µM]
COc1cc(-n2cnc(Nc3nc(N4CCC[C@H]4CO)nc4c3c(C)nn4C)c2)cc(OC)c1OC [Compound 374a, (S)-(1-(1,3-dimethyl-4-((1-(3,4,5-trimethoxyphenyl)-1H-imidazol-4-yl)amino)-1H-pyrazolo[3,4-d]pyrimidin-6-yl)pyrrolidin-2-yl)methanol]	0.1 to 1
COc1cc(-n2cnc(Nc3nc(N4CCC[C@H]4CO)nc4cc(N5CCN(C)CC5)ccc34)c2)cc(OC)c1OC [Compound 375a, (S)-(1-(7-(4-methylpiperazin-1-yl)-4-((1-(3,4,5-trimethoxyphenyl)-1H-imidazol-4-yl)amino)quinazolin-2-yl)pyrrolidin-2-yl)methanol]	< 0.1
COc1cc(-n2cnc(Nc3nc(N4CCC[C@H]4CO)nc4cc(N5CCNCC5)ccc34)c2)cc(OC)c1OC [Compound 376b, (S)-(1-(7-(piperazin-1-yl)-4-((1-(3,4,5-trimethoxyphenyl)-1H-imidazol-4-yl)amino)quinazolin-2-yl)pyrrolidin-2-yl)methanol]	< 0.1
COc1cc(-n2cnc(Nc3nc(N4CCC[C@H]4CO)c4c(C)nn(C)c4n3)c2)cc(OC)c1OC [Compound 377b, (S)-(1-(1,3-dimethyl-6-((1-(3,4,5-trimethoxyphenyl)-1H-imidazol-4-yl)amino)-1H-pyrazolo[3,4-d]pyrimidin-4-yl)pyrrolidin-2-yl)methanol]	< 0.1
COc1cc(-n2cnc(Nc3nc(N4CCC[C@H]4CO)nc4cnccc34)c2)cc(OC)c1OC [Compound 378c, (S)-(1-(4-((1-(3,4,5-trimethoxyphenyl)-1H-imidazol-4-yl)amino)pyrido[3,4-d]pyrimidin-2-yl)pyrrolidin-2-yl)methanol]	< 0.1
COc1cc(-n2cnc(Nc3nc(N4CCC[C@H]4C(N)=O)nc4cnccc34)c2)cc(OC)c1OC [Compound 379a, (S)-1-(4-((1-(3,4,5-trimethoxyphenyl)-1H-imidazol-4-yl)amino)pyrido[3,4-d]pyrimidin-2-yl)pyrrolidine-2-carboxamide]	< 0.1
COc1cc(-n2cnc(Nc3nc(N4CC5(CC5)C[C@H]4CO)c4cccn4n3)c2)cc(OC)c1OC [Compound 380d, (S)-(5-(2-((1-(3,4,5-trimethoxyphenyl)-1H-imidazol-4-yl)amino)pyrrolo[2,1-f][1,2,4]triazin-4-yl)-5-azaspiro[2.4]heptan-6-yl)methanol]	< 0.1
COc1cc(-n2cnc(Nc3nc(N4CCC[C@H]4CO)c4ccncc4n3)c2)cc(OC)c1OC [Compound 381b, (S)-(1-(2-((1-(3,4,5-trimethoxyphenyl)-1H-imidazol-4-yl)amino)pyrido[3,4-d]pyrimidin-4-yl)pyrrolidin-2-yl)methanol]	< 0.1
COc1cc(-n2cnc(Nc3nc(N4CCC[C@@H]4CO)nc4cc(Br)ccc34)c2)cc(OC)c1OC [Compound 382a, (R)-(1-(7-bromo-4-((1-(3,4,5-trimethoxyphenyl)-1H-imidazol-4-yl)amino)quinazolin-2-yl)pyrrolidin-2-yl)methanol]	< 0.1
COc1cc(-n2cnc(Nc3nc(N4CCC[C@@H]4CO)nc4cc(N5CCN(C)CC5)ccc34)c2)cc(OC)c1OC [Compound 383a, (R)-(1-(7-(4-methylpiperazin-1-yl)-4-((1-(3,4,5-trimethoxyphenyl)-1H-imidazol-4-yl)amino)quinazolin-2-yl)pyrrolidin-2-yl)methanol]	< 0.1
COc1cc(-n2cnc(Nc3nc(N4CCC[C@H]4CO)nc4sc(CN5CCCC5)cc34)c2)cc(OC)c1OC [Compound 384b, (S)-(1-(6-(pyrrolidin-1-ylmethyl)-4-((1-(3,4,5-trimethoxyphenyl)-1H-imidazol-4-yl)amino)thieno[2,3-d]pyrimidin-2-yl)pyrrolidin-2-yl)methanol]	< 0.1
COc1cc(-n2cnc(Nc3nc(N4CCC[C@H]4CO)c4ccc(C5=CCNCC5)cc4n3)c2)cc(OC)c1OC [Compound 385c, (S)-(1-(7-(1,2,3,6-tetrahydropyridin-4-yl)-2-((1-(3,4,5-trimethoxyphenyl)-1H-imidazol-4-yl)amino)quinazolin-4-yl)pyrrolidin-2-yl)methanol]	< 0.1
COc1cc(-n2cnc(Nc3nc(N4CCC[C@H]4CO)nc4c3ncn4C)c2)cc(OC)c1OC [Compound 386c, (S)-(1-(9-methyl-6-((1-(3,4,5-trimethoxyphenyl)-1H-imidazol-4-yl)amino)-9H-purin-2-yl)pyrrolidin-2-yl)methanol]	< 0.1
COc1cc(-n2cnc(Nc3nc(N4CCC[C@H]4C(N)=O)nc4c3ncn4C)c2)cc(OC)c1OC [Compound 387a, (S)-1-(9-methyl-6-((1-(3,4,5-trimethoxyphenyl)-1H-imidazol-4-yl)amino)-9H-purin-2-yl)pyrrolidine-2-carboxamide]	< 0.1
COc1cc(-n2cnc(Nc3nc(N4CCC[C@H]4CO)c4ncn(C)c4n3)c2)cc(OC)c1OC [Compound 388b, (S)-(1-(9-methyl-2-((1-(3,4,5-trimethoxyphenyl)-1H-imidazol-4-yl)amino)-9H-purin-6-yl)pyrrolidin-2-yl)methanol]	< 0.1
COc1cc(-n2cnc(Nc3nc(N4CCC[C@H]4CO)c4c(ncn4C)n3)c2)cc(OC)c1OC [Compound 389c, (S)-(1-(7-methyl-2-((1-(3,4,5-trimethoxyphenyl)-1H-imidazol-4-yl)amino)-7H-purin-6-yl)pyrrolidin-2-yl)methanol]	< 0.1
COc1cc(-n2cnc(Nc3nc(N4CCC[C@H]4C(N)=O)nc4ncn(C)c34)c2)cc(OC)c1OC [Compound 390b, (S)-1-(7-methyl-6-((1-(3,4,5-trimethoxyphenyl)-1H-imidazol-4-yl)amino)-7H-purin-2-yl)pyrrolidine-2-carboxamide]	> 1
COc1cc(-n2cnc(Nc3nc(N4CCC[C@H]4CO)nc4cc(C)ccc34)c2)cc(OC)c1OC [Compound 391c, (S)-(1-(7-methyl-4-((1-(3,4,5-trimethoxyphenyl)-1H-imidazol-4-yl)amino)quinazolin-2-yl)pyrrolidin-2-yl)methanol]	< 0.1
COc1cc(-n2cnc(Nc3nc(N4CCC[C@H]4C(N)=O)nc4cc(C)ccc34)c2)cc(OC)c1OC [Compound 392a, (S)-1-(7-methyl-4-((1-(3,4,5-trimethoxyphenyl)-1H-imidazol-4-yl)amino)quinazolin-2-yl)pyrrolidine-2-carboxamide]	< 0.1
COc1cc(-n2cnc(Nc3nc(N4CCC[C@H]4CO)c4ccc(C)cc4n3)c2)cc(OC)c1OC [Compound 393b, (S)-(1-(7-methyl-2-((1-(3,4,5-trimethoxyphenyl)-1H-imidazol-4-yl)amino)quinazolin-4-yl)pyrrolidin-2-yl)methanol]	0.1 to 1

Now from value to compound:

IC50 [µM]	SMILES
< 0.1	COc1cc(-n2cnc(Nc3nc4c(c(N5[C@H](CO)C[C@H]6C[C@H]65)n3)CCC4)c2)cc(OC)c1OC [Compound 394b, ((1R,3S,5R)-2-(2-((1-(3,4,5-trimethoxyphenyl)-1H-imidazol-4-yl)amino)-6,7-dihydro-5H-cyclopenta[d]pyrimidin-4-yl)-2-azabicyclo[3.1.0]hexan-3-yl)methanol]
> 1	COc1cc(-n2cnc(Nc3nc(N4CCC[C@H]4C(N)=O)nc4[nH]cc(C#N)c34)c2)cc(OC)c1OC [Compound 395d, (S)-1-(5-cyano-4-((1-(3,4,5-trimethoxyphenyl)-1H-imidazol-4-yl)amino)-7H-pyrrolo[2,3-d]pyrimidin-2-yl)pyrrolidine-2-carboxamide]
< 0.1	COc1cc(-n2cnc(Nc3nc(N4[C@H](CO)C[C@H]5C[C@H]54)nc4c3CCC4)c2)cc(OC)c1OC [Compound 396a, ((1R,3S,5R)-2-(4-((1-(3,4,5-trimethoxyphenyl)-1H-imidazol-4-yl)amino)-6,7-dihydro-5H-cyclopenta[d]pyrimidin-2-yl)-2-azabicyclo[3.1.0]hexan-3-yl)methanol]
0.1 to 1	COc1cc(-n2cnc(Nc3nc(N4CCC[C@H]4CO)nc4[nH]cc(C#N)c34)c2)cc(OC)c1OC [Compound 397a, (S)-2-(2-(hydroxymethyl)pyrrolidin-1-yl)-4-((1-(3,4,5-trimethoxyphenyl)-1H-imidazol-4-yl)amino)-7H-pyrrolo[2,3-d]pyrimidine-5-carbonitrile]
< 0.1	COc1cc(-n2cnc(Nc3nc4c(c(N5CCC[C@H]5CO)n3)CCCCC4)c2)cc(OC)c1OC [Compound 398c, (S)-(1-(2-((1-(3,4,5-trimethoxyphenyl)-1H-imidazol-4-yl)amino)-6,7,8,9-tetrahydro-5H-cyclohepta[d]pyrimidin-4-yl)pyrrolidin-2-yl)methanol]
< 0.1	COc1cc(-n2cnc(Nc3nc(N4CCC[C@H]4CO)nc4cc(CN5CCCC5)ccc34)c2)cc(OC)c1OC [Compound 399f, (S)-(1-(7-(pyrrolidin-1-ylmethyl)-4-((1-(3,4,5-trimethoxyphenyl)-1H-imidazol-4-yl)amino)quinazolin-2-yl)pyrrolidin-2-yl)methanol]
0.1 to 1	COc1cc(-n2cnc(Nc3nc(N4CCC[C@H]4CO)nc4c3c(C)nn4C3CCCCO3)c2)cc(OC)c1OC (stereo partly drawn) [Compound 400c, ((2S)-1-(3-methyl-1-(tetrahydro-2H-pyran-2-yl)-4-((1-(3,4,5-trimethoxyphenyl)-1H-imidazol-4-yl)amino)-1H-pyrazolo[3,4-d]pyrimidin-6-yl)pyrrolidin-2-yl)methanol]
0.1 to 1	COc1cc(-n2cnc(Nc3nc(N4CCC[C@H]4CO)nc4[nH]nc(C)c34)c2)cc(OC)c1OC [Compound 400d, (S)-(1-(3-methyl-4-((1-(3,4,5-trimethoxyphenyl)-1H-imidazol-4-yl)amino)-1H-pyrazolo[3,4-d]pyrimidin-6-yl)pyrrolidin-2-yl)methanol]
> 1	COc1cc(-n2cnc(Nc3nc(N4CCC[C@H]4C(N)=O)nc4c3c(C)nn4C3CCCCO3)c2)cc(OC)c1OC (stereo partly drawn) [Compound 401a, (2S)-1-(3-methyl-1-(tetrahydro-2H-pyran-2-yl)-4-((1-(3,4,5-trimethoxyphenyl)-1H-imidazol-4-yl)amino)-1H-pyrazolo[3,4-d]pyrimidin-6-yl)pyrrolidine-2-carboxamide]
